Experimental data: the supplement of paper PMC13207355
Structures can show the parent of a compound that is named as a salt.

Assays:
Settings in all cases: exposure time: 72 h
E13 [1] = patient-derived glioblastoma stem cells of classical subtype; assay: surviving fraction (nuclei count normalised to DMSO); higher = more cells surviving (less toxic)
E21 [2] = patient-derived glioblastoma stem cells of mesenchymal subtype; assay: as above
E28 [3] = patient-derived glioblastoma stem cells of classical subtype; assay: as above
E31 [4] = patient-derived glioblastoma stem cells of proneural subtype; assay: as above
E34 [5] = patient-derived glioblastoma stem cells of proneural subtype; assay: as above
E57 [6] = patient-derived glioblastoma stem cells of mesenchymal subtype; assay: as above
FT3469 [7] = normal neural stem cell line; assay: as above
E13 [8] = assay: phenotypic distance (Euclidean, principal components) from DMSO controls (arbitrary units); higher = stronger morphological change
E21 [9] = assay: as above
E28 [10] = assay: as above
E31 [11] = assay: as above
E34 [12] = assay: as above
E57 [13] = assay: as above
FT3469 [14] = assay: as above
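For phenotypic distance (Euclidean, principal components) from DMSO controls in this document: cell Painting imaging in 384-well plates, CellProfiler features reduced to at least 20 principal components, Euclidean distance versus same-plate DMSO vehicle wells (0.1% v/v), median over six images per well.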
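For surviving fraction (nuclei count normalised to DMSO) in this document: nuclei counted by high-content imaging of Hoechst-stained cells in laminin-coated 384-well plates, relative to 0.1% DMSO vehicle wells, with staurosporine as cell-death control.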

CN(C)CCN(Cc1ccc(Cl)cc1)c1ccccn1 [Chloropyramine hydrochloride]
Settings | phenotypic distance | surviving fraction
E13 [1], 4.1 nM | – | 0.918
E13 [1], 12.3 nM | – | 0.933
E13 [1], 37 nM | – | 0.988
E13 [1], 111.1 nM | – | 0.881
E13 [1], 333.3 nM | – | 0.847
E13 [1], 1000 nM | – | 0.953
E13 [1], 3000 nM | – | 0.933
E13 [8], 4.1 nM | 0.601 | –
E13 [8], 12.3 nM | 0.447 | –
E13 [8], 37 nM | 0.683 | –
E13 [8], 111.1 nM | 0.455 | –
E13 [8], 333.3 nM | 0.745 | –
E13 [8], 1000 nM | 1.13 | –
E13 [8], 3000 nM | 0.879 | –
E21 [2], 4.1 nM | – | 0.942
E21 [2], 12.3 nM | – | 1.03
E21 [2], 37 nM | – | 0.87
E21 [2], 111.1 nM | – | 0.922
E21 [2], 333.3 nM | – | 0.993
E21 [2], 1000 nM | – | 1.12
E21 [2], 3000 nM | – | 1.08
E21 [9], 4.1 nM | 0.655 | –
E21 [9], 12.3 nM | 0.862 | –
E21 [9], 37 nM | 0.953 | –
E21 [9], 111.1 nM | 0.778 | –
E21 [9], 333.3 nM | 0.678 | –
E21 [9], 1000 nM | 1.38 | –
E21 [9], 3000 nM | 1.62 | –
E28 [3], 4.1 nM | – | 1.1
E28 [3], 12.3 nM | – | 0.995
E28 [3], 37 nM | – | 1.11
E28 [3], 111.1 nM | – | 0.91
E28 [3], 333.3 nM | – | 1.03
E28 [3], 1000 nM | – | 1.19
E28 [3], 3000 nM | – | 1.13
E28 [10], 4.1 nM | 1.02 | –
E28 [10], 12.3 nM | 1.04 | –
E28 [10], 37 nM | 0.979 | –
E28 [10], 111.1 nM | 0.796 | –
E28 [10], 333.3 nM | 1.02 | –
E28 [10], 1000 nM | 0.889 | –
E28 [10], 3000 nM | 0.936 | –
E31 [4], 4.1 nM | – | 0.968
E31 [4], 12.3 nM | – | 0.91
E31 [4], 37 nM | – | 0.853
E31 [4], 111.1 nM | – | 0.919
E31 [4], 333.3 nM | – | 0.897
E31 [4], 1000 nM | – | 0.946
E31 [4], 3000 nM | – | 0.856
E31 [11], 4.1 nM | 1.06 | –
E31 [11], 12.3 nM | 0.615 | –
E31 [11], 37 nM | 0.841 | –
E31 [11], 111.1 nM | 0.689 | –
E31 [11], 333.3 nM | 0.862 | –
E31 [11], 1000 nM | 0.815 | –
E31 [11], 3000 nM | 0.985 | –
E34 [5], 4.1 nM | – | 0.981
E34 [5], 12.3 nM | – | 0.964
E34 [5], 37 nM | – | 1.06
E34 [5], 111.1 nM | – | 0.866
E34 [5], 333.3 nM | – | 0.942
E34 [5], 1000 nM | – | 1.14
E34 [5], 3000 nM | – | 1
E34 [12], 4.1 nM | 1.29 | –
E34 [12], 12.3 nM | 1.02 | –
E34 [12], 37 nM | 1.15 | –
E34 [12], 111.1 nM | 2.53 | –
E34 [12], 333.3 nM | 0.82 | –
E34 [12], 1000 nM | 0.757 | –
E34 [12], 3000 nM | 1.2 | –
E57 [6], 4.1 nM | – | 0.916
E57 [6], 12.3 nM | – | 0.978
E57 [6], 37 nM | – | 0.96
E57 [6], 111.1 nM | – | 0.936
E57 [6], 333.3 nM | – | 0.986
E57 [6], 1000 nM | – | 1.02
E57 [6], 3000 nM | – | 1.03
E57 [13], 4.1 nM | 0.61 | –
E57 [13], 12.3 nM | 0.445 | –
E57 [13], 37 nM | 0.59 | –
E57 [13], 111.1 nM | 0.607 | –
E57 [13], 333.3 nM | 0.699 | –
E57 [13], 1000 nM | 0.663 | –
E57 [13], 3000 nM | 0.75 | –
FT3469 [7], 4.1 nM | – | 0.774
FT3469 [7], 12.3 nM | – | 1.01
FT3469 [7], 37 nM | – | 0.947
FT3469 [7], 111.1 nM | – | 0.867
FT3469 [7], 333.3 nM | – | 0.758
FT3469 [7], 1000 nM | – | 0.878
FT3469 [7], 3000 nM | – | 0.928
FT3469 [14], 4.1 nM | 1.06 | –
FT3469 [14], 12.3 nM | 0.715 | –
FT3469 [14], 37 nM | 0.697 | –
FT3469 [14], 111.1 nM | 0.656 | –
FT3469 [14], 333.3 nM | 0.847 | –
FT3469 [14], 1000 nM | 0.895 | –
FT3469 [14], 3000 nM | 0.975 | –
